Assay [1] concerns the target T1, prostaglandin cyclooxygenase (Bos taurus, UniProt O62664).
T1 construct: from tissue; host or cells: bovine seminal vesicles (microsomes)
T1 sequence (O62664 25-600): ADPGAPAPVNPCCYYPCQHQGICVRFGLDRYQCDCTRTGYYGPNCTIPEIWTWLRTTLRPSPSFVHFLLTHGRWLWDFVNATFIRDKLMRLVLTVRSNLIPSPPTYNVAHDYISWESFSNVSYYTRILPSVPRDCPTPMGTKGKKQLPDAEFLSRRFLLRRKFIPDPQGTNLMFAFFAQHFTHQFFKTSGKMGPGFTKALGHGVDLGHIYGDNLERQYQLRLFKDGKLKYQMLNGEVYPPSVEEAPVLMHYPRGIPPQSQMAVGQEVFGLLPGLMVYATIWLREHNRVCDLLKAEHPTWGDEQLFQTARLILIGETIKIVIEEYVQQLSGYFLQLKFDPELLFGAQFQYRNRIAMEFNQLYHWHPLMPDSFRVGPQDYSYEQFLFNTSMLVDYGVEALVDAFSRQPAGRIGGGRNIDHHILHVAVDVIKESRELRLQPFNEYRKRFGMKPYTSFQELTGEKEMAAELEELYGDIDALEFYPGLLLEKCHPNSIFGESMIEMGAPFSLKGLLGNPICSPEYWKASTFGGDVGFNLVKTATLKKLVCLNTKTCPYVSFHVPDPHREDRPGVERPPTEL
As to the kind of experiment: in-vitro effect on prostaglandin cyclooxygenase. It counts as biochemical. The settings on record: read-out: IC50 for cyclooxygenase inhibition. The procedure: The in-vitro effect on prostaglandin cyclooxygenase is measured by a modification of the method of Takeguchi et al. described in Biochemistry 10, 2372 (1971); the testing procedure is described in U.S. Pat. No. 4,460,777.

For the next assay, the target named is T2, thromboxane synthetase (Homo sapiens, UniProt P24557).
T2 construct: from tissue; host or cells: human platelets (microsomes)
T2 sequence (P24557 1-533): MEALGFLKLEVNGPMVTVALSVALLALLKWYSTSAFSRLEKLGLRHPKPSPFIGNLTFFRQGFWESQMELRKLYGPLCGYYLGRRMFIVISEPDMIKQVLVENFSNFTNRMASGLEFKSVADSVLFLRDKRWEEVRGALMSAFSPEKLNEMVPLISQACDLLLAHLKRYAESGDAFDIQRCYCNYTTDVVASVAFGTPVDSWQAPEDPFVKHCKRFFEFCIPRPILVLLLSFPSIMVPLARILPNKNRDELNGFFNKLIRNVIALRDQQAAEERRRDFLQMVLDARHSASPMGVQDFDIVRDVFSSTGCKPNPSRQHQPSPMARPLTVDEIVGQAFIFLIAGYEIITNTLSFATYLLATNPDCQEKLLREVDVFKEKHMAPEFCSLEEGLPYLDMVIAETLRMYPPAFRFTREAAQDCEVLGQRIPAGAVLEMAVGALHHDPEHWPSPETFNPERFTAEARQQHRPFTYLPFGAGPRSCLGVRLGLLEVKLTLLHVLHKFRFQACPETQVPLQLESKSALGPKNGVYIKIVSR
As to the kind of experiment: in vitro inhibition of the thromboxane synthetase enzyme. In kind it is biochemical. The text has this: Res. Comm. 74, 1432 (1977). The testing procedure is essentially carried out as described in U.S. Pat. No. 4,460,777.

pIC50: −log10 of the molar value.

A word on the pIC50: it is the negative decadic logarithm of the IC50, by convention in mol/L. As for `O=C(O)CCCCc1cn(-c2cccnc2)c2ccccc12` [3-(4-carboxybutyl)-N-(3-pyridyl)indole, 3-(4-carboxybutyl)-N-(3-pyridyl)-indole], the pIC50 in assay [1] was below 3.00.
At thromboxane synthetase, `O=C(O)CCCC(=O)c1cn(-c2cccnc2)c2ccccc12` [Example 2, 3-(1-oxo-4-carboxybutyl)-N-(3-pyridyl)-indole] showed a pIC50 of around 6.40.

The values above are taken from US4609733A, “3-keto-substituted-N-pyridylindoles” (Ciba-Geigy Corporation, priority 1984, dated 1986).
